Results: patent US10669283B2, “Compound and pharmacologically acceptable salt thereof” (MEIJI SEIKA PHARMA CO., LTD., priority 2016, dated 2020)
Where two headings read alike, the source gives them in different places.

Test system: PDE4
Assay: PDE4 inhibition, scintillation proximity assay (SPA);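 as to PDE4 Inhibitory Activity (concentration for the inhibition rate of 50%): A below 100 nM B 100 to below 1000 nM C 1000 nM or more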
Format: biochemical
Summary of the method: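 Compound pre-diluted 1:10 in 50 mM Tris-HCl pH 7.4, 8.3 mM MgCl2, 1.7 mM EGTA, 3 mg/mL BSA, then incubated with PDE4 and [2,8-3H]-cAMP for 120 min at room temperature. Product captured on ZnSO4-containing YSi-SPA beads for 15 min; radioactivity counted against no-enzyme blank and DMSO control.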

[1] = scintillation proximity assay (SPA), evaluated as classes A, B, C, read-out: PDE4 Inhibitory Activity (concentration for the inhibition rate of 50%)
[2] = scintillation proximity assay, class symbols, read-out: PDE4 Inhibitory Activity

Q: Which IC50 [1] does the source give for `COC(C)(C)c1cc(-c2nccs2)c2oc(N3CC4CCC(C3)N4)nc2c1` [Example 175, 2-(3,8-Diazabicyclo[3.2.1]octan-3-yl)-5-(2-methoxypropan-2-yl)-7-(thiazol-2-yl)benzo[d]oxazole] here?
A: < 100 nM

Q: Which IC50 [1] does the source give for `CC(O)c1cc(-c2nccs2)c2oc(N3CC4CC(C3)N4)nc2c1C(F)(F)F` (centres unmarked) [Example 182, 1-(2-(3,6-Diazabicyclo[3.1.1]heptan-3-yl)-7-(thiazol-2-yl)-4-(trifluoromethyl)benzo[d]oxazol-5-yl)ethan-1-ol] here?
A: < 100 nM

Q: With `CC(C)(O)c1cc(-c2nccs2)c2oc(N3CC4CCC(C3)N4)nc2c1OC(F)(F)F` [Example 195, 2-(2-(3,8-Diazabicyclo[3.2.1]octan-3-yl)-7-(thiazol-2-yl)-4-(trifluoromethoxy)benzo[d]oxazol-5-yl)propan-2-ol] as the molecule, how does the IC50 [1] read?
A: < 100 nM

Q: Which IC50 [1] does the source give for `OC1(c2cc(-c3nccs3)c3oc(N4CC5CCC(C4)N5)nc3c2OC(F)(F)F)CC1` [Example 274, 1-(2-(3,8-Diazabicyclo[3.2.1]octan-3-yl)-7-(thiazol-2-yl)-4-(trifluoromethoxy)benzo[d]oxazol-5-yl)cyclopropan-1-ol] here?
A: < 100 nM

Q: For `COC(c1ccc(-c2nccs2)c2oc(N3CC4CCC(C3)N4)nc12)C(F)F` (centres unmarked) [Example 131, 2-(3,8-Diazabicyclo[3.2.1]octan-3-yl)-4-(2,2-difluoro-1-methoxyethyl)-7-(thiazol-2-yl)benzo[d]oxazole], which IC50 [1] is on record?
A: < 100 nM

Q: `NS(=O)(=O)c1cc(-c2nccs2)c2oc(N3CC4CC(C3)N4)nc2c1` [Example 58, 2-(3,6-Diazabicyclo[3.1.1]heptan-3-yl)-7-(thiazol-2-yl)benzo[d]oxazole-5-sulfonamide] was tested. Which IC50 [1] did it give?
A: < 100 nM

Q: How did the IC50 [1] turn out when `FC(F)(F)Oc1c(Cl)cc(-c2nccs2)c2oc(N3CC4COCC(C3)N4)nc12` [Example 4, 7-(5-Chloro-7-(thiazol-2-yl)-4-(trifluoromethoxy)benzo [d]oxazol-2-yl)-3-oxa-7,9-diazabicyclo[3.3.1]nonane] was run?
A: < 100 nM

Q: With `OCC(F)(F)Oc1ccc(-c2cscn2)c2oc(N3CC4CC(C3)N4)nc12` [Example 311, 2-((2-(3,6-Diazabicyclo[3.1.1]heptan-3-yl)-7-(thiazol-4-yl)benzo[d]oxazol-4-yl)oxy)-2,2-difluoroethan-1-ol] as the molecule, how does the IC50 [1] read?
A: < 100 nM

Q: How did the IC50 [1] turn out when `CC(O)c1cc(-c2nccs2)c2oc(N3CC4CC(C3)N4)nc2c1OC(F)(F)F` (centres unmarked) [Example 273, 1-(2-(3,6-Diazabicyclo[3.1.1]heptan-3-yl)-7-(thiazol-2-yl)-4-(trifluoromethoxy)benzo[d]oxazol-5-yl)ethan-1-ol] was run?
A: < 100 nM

Q: Which IC50 [1] does the source give for `FC(F)(F)Oc1cc(-c2nccs2)c2oc(N3CC4CCCC(C3)N4)nc2c1` [Example 55, 2-(3,9-Diazabicyclo[3.3.1]nonan-3-yl)-7-(thiazol-2-yl)-5-(trifluoromethoxy)benzo[d]oxazole] here?
A: < 100 nM

Q: How did the IC50 [1] turn out when `O=C(O)c1cc(-c2nccs2)c2oc(N3CC4CC(C3)N4)nc2c1OC(F)(F)F` [Example 190, 2-(3,6-Diazabicyclo[3.1.1]heptan-3-yl)-7-(thiazol-2-yl)-4-(trifluoromethoxy)benzo[d]oxazole-5-carboxylic acid] was run?
A: > 1000 nM

Q: Which IC50 [1] does the source give for `Cc1ccc(-c2nccs2)c2oc(N3CC4CCCC(C3)N4)nc12` [Example 27, 2-(3,9-Diazabicyclo[3.3.1]nonan-3-yl)-4-methyl-7-(thiazol-2-yl)benzo[d]oxazole] here?
A: < 100 nM

Q: For `CN(C)S(=O)(=O)c1ccc(-c2nccs2)c2oc(N3CC4CC(C3)N4)nc12` [Example 388, 2-(3,6-diazabicyclo[3.1.1]heptan-3-yl)-N,N-dimethyl-7-(thiazol-2-yl)benzo [d]oxazole-4-sulfonamide], which IC50 [2] is on record?
A: < 100 nM

Q: With `O=C(O)c1ccc(-c2nccs2)c2oc(N3CC4CC(C3)N4)nc12` [Example 366, 2-(3,6-diazabicyclo [3.1.1]heptan-3-yl)-7-(thiazol-2-yl)benzo[d] oxazole-4-carboxylic acid] as the molecule, how does the IC50 [2] read?
A: 100 to 1000 nM

Q: Which IC50 [1] does the source give for `FC(F)(F)COC(c1ccc(-c2nccs2)c2oc(N3CC4CCC(C3)N4)nc12)C(F)(F)F` (centres unmarked) [Example 221, 2-(3,8-Diazabicyclo[3.2.1]octan-3-yl)-7-(thiazol-2-yl)-4-(2,2,2-trifluoro-1-(2,2,2-trifluoroethoxy)ethyl)benzo[d]oxazole] here?
A: < 100 nM

Q: How did the IC50 [1] turn out when `OC(c1cc(-c2nccs2)c2oc(N3CC4CCC(C3)N4)nc2c1)C(F)(F)F` (centres unmarked) [Example 139, 1-(2-(3,8-Diazabicyclo[3.2.1]octan-3-yl)-7-(thiazol-2-yl)benzo[d]oxazol-5-yl)-2,2,2-trifluoroethan-1-ol] was run?
A: < 100 nM

Q: Which IC50 [1] does the source give for `NC(=O)COC(c1ccc(-c2nccs2)c2oc(N3CC4CC(C3)N4)nc12)C(F)(F)F` (centres unmarked) [Example 256, 2-(1-(2-(3,6-Diazabicyclo[3.1.1]heptan-3-yl)-7-(thiazol-2-yl)benzo[d]oxazol-4-yl)-2,2,2-trifluoroethoxy)acetamide] here?
A: < 100 nM

Q: With `CC(O)c1cc(-c2nccs2)c2oc(N3CC4CCC(C3)N4O)nc2c1OC(F)(F)F` (centres unmarked) [Example 383, 3-(5-(1-hydroxy-ethyl)-7-(thiazol-2-yl)-4-(trifluoro-methoxy)benzo [d]oxazol-2-yl)-3,8-diazabicyclo[3.2.1] octan-8-ol] as the molecule, how does the IC50 [2] read?
A: > 1000 nM

Q: With `Cc1ccc(-c2nccs2)c2oc(N3CC4CCC(C3)N4)nc12` [Example 25, 2-(3,8-Diazabicyclo[3.2.1]octan-3-yl)-4-methyl-7-(thiazol-2-yl)benzo[d]oxazole] as the molecule, how does the IC50 [1] read?
A: < 100 nM

Q: For `C[S+]([O-])c1cc(-c2nccs2)c2oc(N3CC4CC(C3)N4)nc2c1` (centres unmarked) [Example 43, 2-(3,6-Diazabicyclo[3.1.1]heptan-3-yl)-5-(methylsulfinyl)-7-(thiazol-2-yl)benzo[d]oxazole], which IC50 [1] is on record?
A: < 100 nM

Q: How did the IC50 [1] turn out when `OC(c1cc(-c2nccs2)c2oc(N3CC4CCC(C3)N4)nc2c1)C(F)(F)F` (racemic) [Example 137, 1-(2-(3,8-Diazabicyclo[3.2.1]octan-3-yl)-7-(thiazol-2-yl)benzo[d]oxazol-5-yl)-2,2,2-trifluoroethan-1-ol] was run?
A: < 100 nM

Q: Which IC50 [1] does the source give for `CC(C)(O)C(F)(F)Oc1ccc(-c2ncco2)c2oc(N3CC4CC(C3)N4)nc12` [Example 290, 1-((2-(3,6-Diazabicyclo[3.1.1]heptan-3-yl)-7-(oxazol-2-yl)benzo[d]oxazol-4-yl)oxy)-1,1-difluoro-2-methylpropan-2-ol] here?
A: < 100 nM

Q: With `FC(F)(F)c1c(Cl)cc(-c2ccccn2)c2oc(N3CC4COCC(C3)N4)nc12` [Example 14, 7-(5-Chloro-7-(pyridin-2-yl)-4-(trifluoromethyl)benzo[d]oxazol-2-yl)-3-oxa-7,9-diazabicyclo[3.3.1]nonane] as the molecule, how does the IC50 [1] read?
A: 100 to 1000 nM

Q: With `FC(F)Oc1ccc(-c2nccs2)c2oc(N3CC4CCC(C3)N4)nc12` [Example 263, 2-(3,8-Diazabicyclo[3.2.1]octan-3-yl)-4-(difluoromethoxy)-7-(thiazol-2-yl)benzo[d]oxazole] as the molecule, how does the IC50 [1] read?
A: < 100 nM

Q: `OC(c1cc(-c2nccs2)c2oc(N3CC4CC(C3)N4)nc2c1OC(F)(F)F)C(F)F` (centres unmarked) [Example 207, 1-(2-(3,6-Diazabicyclo[3.1.1]heptan-3-yl)-7-(thiazol-2-yl)-4-(trifluoromethoxy)benzo[d]oxazol-5-yl)-2,2-difluoroethan-1-ol] was tested. Which IC50 [1] did it give?
A: < 100 nM

Q: `CC(O)(c1ccc(-c2nccs2)c2oc(N3CC4CCC(C3)N4)nc12)C(F)F` (centres unmarked) [Example 129, 2-(2-(3,8-Diazabicyclo[3.2.1]octan-3-yl)-7-(thiazol-2-yl)benzo[d]oxazol-4-yl)-1,1-difluoropropan-2-ol] was tested. Which IC50 [1] did it give?
A: < 100 nM

Q: `CC(=O)Nc1ccc(-c2nccs2)c2oc(N3CC4CCCC(C3)N4)nc12` [Example 34, N-(2-(3,9-Diazabicyclo[3.3.1]nonan-3-yl)-7-(thiazol-2-yl)benzo[d]oxazol-4-yl)acetamide] was tested. Which IC50 [1] did it give?
A: < 100 nM

Q: How did the IC50 [1] turn out when `CC(O)(c1ccc(-c2nccs2)c2oc(N3CC4CC(C3)N4)nc12)C(F)(F)F` (centres unmarked) [Example 271, 2-(2-(3,6-Diazabicyclo[3.1.1]heptan-3-yl)-7-(thiazol-2-yl)benzo[d]oxazol-4-yl)-1,1,1-trifluoropropan-2-ol] was run?
A: < 100 nM

Q: For `OC1(COC(c2ccc(-c3nccs3)c3oc(N4CC5CC(C4)N5)nc23)C(F)(F)F)CC1` (centres unmarked) [Example 232, 1-((1-(2-(3,6-Diazabicyclo[3.1.1]heptan-3-yl)-7-(thiazol-2-yl)benzo[d]oxazol-4-yl)-2,2,2-trifluoroethoxy)methyl)cyclopropan-1-ol], which IC50 [1] is on record?
A: < 100 nM

Q: Which IC50 [1] does the source give for `CC(C)(O)COc1ccc(-c2nccs2)c2oc(N3CC4CCC(C3)N4)nc12` [Example 264, 1-((2-(3,8-Diazabicyclo[3.2.1]octan-3-yl)-7-(thiazol-2-yl)benzo[d]oxazol-4-yl)oxy)-2-methylpropan-2-ol] here?
A: < 100 nM

Q: Which IC50 [1] does the source give for `CC(C)c1cc(-c2nccs2)c2oc(N3CC4COCC(C3)N4)nc2c1` [Example 23, 7-(5-Isopropyl-7-(thiazol-2-yl)benzo[d]oxazol-2-yl)-3-oxa-7,9-diazabicyclo[3.3.1]nonane] here?
A: 100 to 1000 nM

Q: Which IC50 [1] does the source give for `FC(F)(F)Oc1c(Cl)cc(-c2ccccn2)c2oc(N3CC4CCC(C3)N4)nc12` [Example 7, 2-(3,8-Diazabicyclo[3.2.1]octan-3-yl)-5-chloro-7-(pyridin-2-yl)-4-(trifluoromethoxy)benzo[d]oxazole] here?
A: < 100 nM

Q: How did the IC50 [1] turn out when `OC(c1ccc(-c2nccs2)c2oc(N3CC4CC(C3)N4)nc12)C(F)F` (centres unmarked) [Example 125, 1-(2-(3,6-Diazabicyclo[3.1.1]heptan-3-yl)-7-(thiazol-2-yl)benzo[d]oxazol-4-yl)-2,2-difluoroethan-1-ol] was run?
A: < 100 nM

Q: With `FC(F)(Oc1ccc(-c2nccs2)c2oc(N3CC4CC(C3)N4)nc12)c1nc2ccccc2o1` [Example 403, 4-(benzo [d]oxazol-2-yldifluoro-methoxy)-2-(3,6-diazabicyclo [3.1.1]heptan-3-yl)-7-(thiazol-2-yl)benzo[d] oxazole] as the molecule, how does the IC50 [2] read?
A: < 100 nM

Q: For `COC(c1cc(-c2nccs2)c2oc(N3CC4CCCC(C3)N4)nc2c1)C(F)(F)F` (centres unmarked) [Example 145, 2-(3,9-Diazabicyclo[3.3.1]nonan-3-yl)-7-(thiazol-2-yl)-5-(2,2,2-trifluoro-1-methoxyethyl)benzo[d]oxazole], which IC50 [1] is on record?
A: < 100 nM
